Results on 24 molecules are retold here after patent US8318758B2, “5-fluoro-2-oxopyrimidine-1(2H)-carboxylate derivatives” (Dow AgroSciences, LLC, priority 2009, dated 2012).

Molecules are shown by their SMILES. Read-outs that look alike come from different tables or passages of the source.

The melting point is the temperature of the solid-liquid transition.

Data set [1] relates to Mycosphaerella graminicola; anamorph: Septoria tritici; Bayer code SEPTTR. As to the kind of experiment: Fungicidal activity: leaf blotch of wheat, one-day protectant and three-day curative tests on wheat plants. The settings on record: Zymoseptoria tritici. It is filed as in vivo, Septoria tritici on wheat plants (variety Yuma). Here is the method:
Evaluation of Fungicidal Activity: Leaf Blotch of Wheat (Mycosphaerella graminicola; anamorph: Septoria tritici; Bayer code […]) Wheat plants (variety Yuma) were grown from seed in a greenhouse in 50% mineral soil/50% soil-less Metro mix until the first leaf was fully emerged, with 7-10 seedlings per pot. These plants were inoculated with an aqueous spore suspension of Septoria tritici either prior to or after fungicide treatments. After inoculation the plants were kept in 100% relative humidity (one day in a dark dew chamber followed by two to three days in a lighted dew chamber) to permit spores to germinate and infect the leaf. The plants were then transferred to a greenhouse for disease to develop. The following table presents the activity of typical compounds of the present disclosure when evaluated in these experiments. The effectiveness of the test compounds in controlling disease was determined by assessing the severity of disease on treated plants, then converting the severity to percent control based on the level of disease on untreated, inoculated plants.

Setting [2] is: 24 h, read-out: SEPTTR 100 PPM 1DP (% disease control rating).
Where [3] appears, read: 72 h, read-out: SEPTTR 100 PPM 3DC (% disease control rating).
The mark [4] stands for this setting: 24 h, One-Day Protectant (1DP), 100 ppm, wheat plants, percent control relative to untreated, inoculated plants, read-out: SEPTTR 100 PPM 1DP (% disease control rating).
[5] abbreviates: 72 h, Three-Day Curative (3DC), 100 ppm, wheat plants, percent control relative to untreated, inoculated plants, read-out: SEPTTR 100 PPM 3DC (% disease control rating).

Regarding `CN(C)/C=N/c1nc(=O)n(C(=O)OCC(C)(C)C)cc1F` [Compound 1, 4-(dimethylamino-methyleneamino)-5-fluoro-2-oxo-2H-pyrimidine-1-carboxylic acid 2,2-dimethyl-propyl ester], the melting point lay within 162 to 164 °C. For the same molecule, the pest or weed control at 100 ppm in data set [1] (setting [2]) lay within 76 to 100%. Further, the pest or weed control at 100 ppm in data set [1] (setting [3]) was 76 to 100%.
Regarding `Nc1nc(=O)n(C(=O)OCc2ccccc2)cc1F` [Compound 2, benzyl 4-amino-5-fluoro-2-oxopyrimidine-1(2H)-carboxylate], the melting point lay within 212 to 215 °C. Besides, the pest or weed control at 100 ppm in data set [1] (setting [2]) fell in the range of 76 to 100%. In addition, the pest or weed control at 100 ppm in data set [1] (setting [3]) lay within 76 to 100%.
In turn, `CCOC(=O)n1cc(F)c(N)nc1=O` [Compound 3, ethyl 4-amino-5-fluoro-2-oxopyrimidine-1(2H)-carboxylate] returned a melting point of 190 to 193 °C. In addition, in data set [1] (setting [2]), the pest or weed control at 100 ppm is 76 to 100%. In addition, the pest or weed control at 100 ppm in data set [1] (setting [3]) was in the range of 76 to 100%.
`CC(C)OC(=O)n1cc(F)c(N)nc1=O` [Compound 4, isopropyl 4-amino-5-fluoro-2-oxopyrimidine-1(2H)-carboxylate]: the melting point lay in the range of 217 to 219 °C. In data set [1] (setting [2]), the pest or weed control at 100 ppm fell in the range of 76 to 100%. Besides, in data set [1] (setting [3]), the pest or weed control at 100 ppm fell in the range of 76 to 100%.
The molecule `Nc1nc(=O)n(C(=O)Oc2ccccc2)cc1F` [Compound 5, phenyl 4-amino-5-fluoro-2-oxopyrimidine-1(2H)-carboxylate] displayed a melting point of 175 to 180 °C. The pest or weed control at 100 ppm in data set [1] (setting [2]) is 76 to 100%. Further, in data set [1] (setting [3]), the pest or weed control at 100 ppm was in the range of 76 to 100%.
With `COc1ccc(OC(=O)n2cc(F)c(N)nc2=O)cc1` [Compound 6], the melting point lay within 172.4 to 173.6 °C. For the same molecule, the pest or weed control at 100 ppm in data set [1] (setting [4]) fell in the range of 76 to 100%. In data set [1] (setting [5]), the pest or weed control at 100 ppm fell in the range of 76 to 100%.
Take `Nc1nc(=O)n(C(=O)Oc2ccc(Cl)cc2)cc1F` [Compound 7]: the melting point was 143.2 to 146.3 °C. In addition, the pest or weed control at 100 ppm in data set [1] (setting [4]) was in the range of 76 to 100%. Besides, in data set [1] (setting [5]), the pest or weed control at 100 ppm was 76 to 100%.
Molecule `Nc1nc(=O)n(C(=O)Oc2ccccc2Cl)cc1F` [Compound 8] gave a melting point of 222.5 to 224.6 °C. Also, the pest or weed control at 100 ppm in data set [1] (setting [4]) was in the range of 76 to 100%. Moreover, the pest or weed control at 100 ppm in data set [1] (setting [5]) fell in the range of 76 to 100%.
As to `Nc1nc(=O)n(C(=O)Oc2ccc(F)cc2)cc1F` [Compound 9], the melting point lay within 156.8 to 158.2 °C. Moreover, the pest or weed control at 100 ppm in data set [1] (setting [4]) was 76 to 100%. The pest or weed control at 100 ppm in data set [1] (setting [5]) is 76 to 100%.
As for `Cc1ccc(OC(=O)n2cc(F)c(N)nc2=O)cc1` [Compound 10], the melting point lay within 235 to 237 °C. The pest or weed control at 100 ppm in data set [1] (setting [4]) lay in the range of 76 to 100%. For the same molecule, the pest or weed control at 100 ppm in data set [1] (setting [5]) lay within 76 to 100%.
Consider `Nc1nc(=O)n(C(=O)OCc2ccccc2Cl)cc1F` [Compound 11], for which the melting point fell in the range of 145.8 to 146.8 °C. For the same molecule, in data set [1] (setting [4]), the pest or weed control at 100 ppm is 76 to 100%. Besides, the pest or weed control at 100 ppm in data set [1] (setting [5]) fell in the range of 76 to 100%.
Consider `Nc1nc(=O)n(C(=O)OCCOCc2ccccc2)cc1F` [Compound 12], for which the melting point fell in the range of 142.8 to 145.1 °C. Also, the pest or weed control at 100 ppm in data set [1] (setting [4]) was in the range of 76 to 100%. The pest or weed control at 100 ppm in data set [1] (setting [5]) fell in the range of 76 to 100%.
Molecule `COC(=O)n1cc(F)c(N)nc1=O` [Compound 13] displayed a melting point of 240 to 243 °C. Also, the pest or weed control at 100 ppm in data set [1] (setting [4]) was in the range of 76 to 100%. The pest or weed control at 100 ppm in data set [1] (setting [5]) is 76 to 100%.
With `Nc1nc(=O)n(C(=O)OCCCCl)cc1F` [Compound 14], the melting point is 145.1 to 146.3 °C. Further, the pest or weed control at 100 ppm in data set [1] (setting [4]) is 76 to 100%. In addition, the pest or weed control at 100 ppm in data set [1] (setting [5]) lay in the range of 76 to 100%.
With `COCCOC(=O)n1cc(F)c(N)nc1=O` [Compound 15], the melting point was in the range of 94.2 to 96.3 °C. In addition, the pest or weed control at 100 ppm in data set [1] (setting [4]) lay within 76 to 100%. In addition, the pest or weed control at 100 ppm in data set [1] (setting [5]) was 76 to 100%.
Take `Nc1nc(=O)n(C(=O)OCC(Cl)(Cl)Cl)cc1F` [Compound 16]: the melting point was 219.3 to 221.1 °C. In addition, the pest or weed control at 100 ppm in data set [1] (setting [4]) is 76 to 100%. In addition, the pest or weed control at 100 ppm in data set [1] (setting [5]) lay in the range of 76 to 100%.
`C=CCOC(=O)n1cc(F)c(N)nc1=O` [Compound 17] returned a melting point of 258 to 260.4 °C. Moreover, in data set [1] (setting [4]), the pest or weed control at 100 ppm was in the range of 76 to 100%. In data set [1] (setting [5]), the pest or weed control at 100 ppm was in the range of 76 to 100%.
As for `Nc1nc(=O)n(C(=O)Oc2ccc3ccccc3c2)cc1F` [Compound 18], the melting point was 165.8 to 168.1 °C. For the same molecule, in data set [1] (setting [4]), the pest or weed control at 100 ppm was 76 to 100%. Moreover, the pest or weed control at 100 ppm in data set [1] (setting [5]) lay in the range of 76 to 100%.
`CCCCCOC(=O)n1cc(F)c(N)nc1=O` [Compound 19]: the melting point was 125.9 to 128.2 °C. Besides, the pest or weed control at 100 ppm in data set [1] (setting [4]) was 76 to 100%. The pest or weed control at 100 ppm in data set [1] (setting [5]) lay within 76 to 100%.
As to `Nc1nc(=O)n(C(=O)OC2CCCC2)cc1F` [Compound 20], the melting point was in the range of 139.8 to 140.6 °C. Also, in data set [1] (setting [4]), the pest or weed control at 100 ppm was in the range of 76 to 100%. Moreover, the pest or weed control at 100 ppm in data set [1] (setting [5]) was in the range of 76 to 100%.
Consider `Nc1nc(=O)n(C(=S)Oc2ccccc2)cc1F` [Compound 21, O-phenyl 4-amino-5-fluoro-2-oxopyrimidine-1(2H)-carbothioate], for which the melting point was 113 to 116 °C. The pest or weed control at 100 ppm in data set [1] (setting [4]) is 76 to 100%. In addition, the pest or weed control at 100 ppm in data set [1] (setting [5]) lay in the range of 76 to 100%.
In turn, `CN(C)/C=N/c1nc(=O)n(C(=O)OCc2ccccc2)cc1F` [Compound 23] returned a melting point of 123.2 to 124.3 °C.
Same read-out and setting: the figure for `Cc1ccc(OC(=O)n2cc(F)c(/N=C/N(C)C)nc2=O)cc1` [Compound 24] is 179 to 181.2 °C; for `CN(C)/C=N/c1nc(=O)n(C(=O)OC2CCCC2)cc1F` [Compound 26] it is 103.5 to 104.6 °C.
